Measurements as given in EP2712863B1, “Novel inhibitors of bacterial biofilms and related methods” (Sequoia Sciences, Inc., priority 2012, dated 2014).
In brackets after ≈: the same amount, converted by molar mass. Like-named read-outs stand apart in the source and are kept apart here.

Assays:
E. coli = test: Biofilm growth assay (spreading biofilm on semi-solid agar); assay type: cell-based; details: concentration that reduces the area of the spreading biofilm by >= 85%; for IC85: Escherichia coli, read-out: E. coli
Outline: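 Spreading (swarming) biofilm on semi-solid agar: E. coli on LB with 0.6% agar and 0.5% glucose; P. aeruginosa on M8 agar with 0.2% glucose, 100 µM CaCl2, 1 mM MgSO4, 0.5% Casamino acids. Compound in medium; 5 µL overnight culture spotted centrally, 37°C overnight. Value: concentration (µg/ml) giving ≥85% reduction in spread area versus negative control.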

P. aeruginosa = test: as above; assay type: cell-based; details: concentration that reduces the area of the spreading biofilm by >= 85%; for IC85: Pseudomonas aeruginosa, read-out: P. aeruginosa

Structure (SMILES)	IC85 (E. coli; Table 3)	IC85 (P. aeruginosa; Table 3)	other results
CC1(C)CC[C@]2(c3nnc(S)[nH]3)CC[C@]3(C)C(=CCC4[C@@]5(C)Cc6c(n[nH]c6N)C(C)(C)C5CC[C@]43C)C2C1 (stereo partly drawn) [Compound 75, 5-((4aS,6aS,6bR,13aR)-12-Amino-2,2,6a,6b,9,9,13a-heptamethyl-2,3,4,4a,5,6,6a,6b,7,8,8a,9,11,13,13a,13b,14,15b-octadecahydro-1H-chryseno[1,2-f]indazol-4a-yl)-4H-1,2,4-triazole-3-thiol]	–	–	IC85 (E. coli; Table 4): 1 µg/mL (≈ 1.82 µM); IC85 (P. aeruginosa; Table 4): 0.5 µg/mL (≈ 0.911 µM)
CC1(C)CC[C@]2(C(=O)O)CC[C@]3(C)C(=C(c4ccc(N5CCOCC5)cc4)CC4[C@@]5(C)Cc6c(n[nH]c6N)C(C)(C)C5CC[C@]43C)C2C1 (stereo partly drawn) [Compound 51, (4aS,6aS,6bR,13aR)-12-Amino-2,2,6a,6b,9,9,13a-heptamethyl-15-(4-morpholinophenyl)-2,3,4,4a,5,6,6a,6b,7,8,8a,9,11,13,13a,13b,14,15b-octadecahydro-1H-chryseno[1,2-f]indazole-4a-carboxylic acid]	2 µg/mL (≈ 3.05 µM)	0.5 µg/mL (≈ 0.763 µM)	–
CC1(C)CC[C@]2(C(=O)O)CC[C@]3(C)C(=C(c4ccoc4)CC4[C@@]5(C)Cc6c(n[nH]c6N)C(C)(C)[C@@H]5CC[C@]43C)[C@@H]2C1 (stereo partly drawn) [Compound 26, (4aS,6aS,6bR,8aR,13aR,15bS)-12-Amino-15-(furan-3-yl)-2,2,6a,6b,9,9,13a-heptamethyl-2,3,4,4a,5,6,6a,6b,7,8,8a,9,11,13,13a,13b,14,15b-octadecahydro-1H-chryseno[1,2-f]indazole-4a-carboxylic acid]	1 µg/mL (≈ 1.79 µM)	0.25 µg/mL (≈ 0.447 µM)	–
CC1(C)CC[C@]2(c3nnco3)CC[C@]3(C)C(=CCC4[C@@]5(C)Cc6c(n[nH]c6N)C(C)(C)C5CC[C@]43C)C2C1 (stereo partly drawn) [Compound 67, (4aS,6aS,6bR,13aR)-2,2,6a,6b,9,9,13a-Heptamethyl-4a-(1,3,4-oxadiazol-2-yl)-2,3,4,4a,5,6,6a,6b,7,8,8a,9,11,13,13a,13b,14,15b-octadecahydro-1H-chryseno[1,2-]indazol-12-amine]	–	–	E. coli (E. coli; Table 4): 2 µg/mL; P. aeruginosa (P. aeruginosa; Table 4): 1 µg/mL
CC1(C)CC[C@]2(c3nnc(O)s3)CC[C@]3(C)C(=CCC4[C@@]5(C)Cc6c(n[nH]c6N)C(C)(C)C5CC[C@]43C)C2C1 (stereo partly drawn) [Compound 78, 5-((4aS,6aS,6bR,13aR)-12-Amino-2,2,6a,6b,9,9,13a-heptamethyl-2,3,4,4a,5,6,6a,6b,7,8,8a,9,11,13,13a,13b,14,15b-octadecahydro-1H-chryseno[1,2-f]indazol-4a-yl)-1,3,4-thiadiazol-2-ol]	–	–	IC85 (E. coli; Table 4): 1 µg/mL (≈ 1.82 µM); IC85 (P. aeruginosa; Table 4): > 1 µg/mL
CC1(C)CC[C@]2(C(=O)O)CC[C@]3(C)C(=C(c4ccncc4)CC4[C@@]5(C)Cc6c(n[nH]c6N)C(C)(C)[C@@H]5CC[C@]43C)[C@@H]2C1 (stereo partly drawn) [Compound 29, (4aS,6aS,6bR,8aR,13aR,15bS)-12-Amino-2,2,6a,6b,9,9,13a-heptamethyl-15-(pyridin-4-yl)-2,3,4,4a,5,6,6a,6b,7,8,8a,9,11,13,13a,13b,14,15b-octadecahydro-1H-chryseno[1,2-f]indazole-4a-carboxylic acid]	1 µg/mL (≈ 1.75 µM)	1 µg/mL (≈ 1.75 µM)	–
CC1(C)CC[C@]2(C(=O)O)CC[C@]3(C)C(=C(c4ccc(N5CCC(N)CC5)nc4)CC4[C@@]5(C)Cc6c(n[nH]c6N)C(C)(C)C5CC[C@]43C)C2C1 (stereo partly drawn) [Compound 57, (4aS,6aS,6bR,13aR)-12-Amino-15-(6-(4-aminopiperidin-1-yl)pyridin-3-yl)-2,2,6a,6b,9,9,13a-heptamethyl-2,3,4,4a,5,6,6a,6b,7,8,8a,9,11,13,13a,13b,14,15b-octadecahydro-1H-chryseno[1,2-f]indazole-4a-carboxylic acid]	1 µg/mL (≈ 1.49 µM)	> 2 µg/mL	–
CN(C)c1cc(C2=C3[C@@H]4CC(C)(C)CC[C@]4(C(=O)O)CC[C@@]3(C)[C@]3(C)CC[C@H]4C(C)(C)c5n[nH]c(N)c5C[C@]4(C)C3C2)ccn1 (stereo partly drawn) [Compound 22, (4aS,6aS,6bR,8aR,13aR,15bS)-12-Amino-15-(2-(dimethylamino)pyridin-4-yl)-2,2,6a,6b,9,9,13a-heptamethyl-2,3,4,4a,5,6,6a,6b,7,8,8a,9,11,13,13a,13b,14,15b-octadecahydro-1H-chryseno[1,2-f]indazole-4a-carboxylic acid]	> 2 µg/mL	1 µg/mL (≈ 1.63 µM)	–
CC1(C)CC[C@]2(C(=O)Nc3nnc(N)s3)CC[C@]3(C)C(=CCC4[C@@]5(C)Cc6c(n[nH]c6N)C(C)(C)C5CC[C@]43C)C2C1 (stereo partly drawn) [Compound 71, (4aS,6aS,6bR,13aR)-12-Amino-N-(5-amino-1,3,4-thiadiazol-2-yl)-2,2,6a,6b,9,9,13a-heptamethyl-2,3,4,4a,5,6,6a,6b,7,8,8a,9,11,13,13a,13b,14,15b-octadecahydro-1H-chryseno[1,2-f]indazole-4a-carboxamide]	–	–	IC85 (E. coli; Table 4): 2 µg/mL (≈ 3.38 µM); IC85 (P. aeruginosa; Table 4): 0.5 µg/mL (≈ 0.845 µM)
COc1ccc(C2=C3[C@@H]4CC(C)(C)CC[C@]4(C(=O)O)CC[C@@]3(C)[C@]3(C)CC[C@H]4C(C)(C)c5n[nH]c(N)c5C[C@]4(C)C3C2)cn1 (stereo partly drawn) [Compound 42, (4aS,6aS,6bR,8aR,13aR,15bS)-12-Amino-15-(6-methoxypyridin-3-yl)-2,2,6a,6b,9,9,13a-heptamethyl-2,3,4,4a,5,6,6a,6b,7,8,8a,9,11,13,13a,13b,14,15b-octadecahydro-1H-chryseno[1,2-f]indazole-4a-carboxylic acid]	1 µg/mL (≈ 1.66 µM)	0.25 µg/mL (≈ 0.416 µM)	–
CNc1ccc(C2=C3[C@@H]4CC(C)(C)CC[C@]4(C(=O)O)CC[C@@]3(C)[C@]3(C)CC[C@H]4C(C)(C)c5n[nH]c(N)c5C[C@]4(C)C3C2)cn1 (stereo partly drawn) [Compound 43, (4aS,6aS,6bR,8aR,13aR,15bS)-12-Amino-2,2,6a,6b,9,9,13a-heptamethyl-15-(6-(methylamino)pyridin-3-yl)-2,3,4,4a,5,6,6a,6b,7,8,8a,9,11,13,13a,13b,14,15b-octadecahydro-1H-chryseno[1,2-f]indazole-4a-carboxylic acid]	1 µg/mL (≈ 1.67 µM)	1 µg/mL (≈ 1.67 µM)	–
CC1(C)CC[C@]2(C(=O)O)CC[C@]3(C)C(=C(c4ccc(N5CCNCC5)cc4)CC4[C@@]5(C)Cc6c(n[nH]c6N)C(C)(C)C5CC[C@]43C)C2C1 (stereo partly drawn) [Compound 50, (4aS,6aS,6bR,13aR)-12-Amino-2,2,6a,6b,9,9,13a-heptamethyl-15-(4-(piperazin-1-yl)phenyl)-2,3,4,4a,5,6,6a,6b,7,8,8a,9,11,13,13a,13b,14,15b-octadecahydro-1H-chryseno[1,2-f]indazole-4a-carboxylic acid]	1 µg/mL (≈ 1.53 µM)	2 µg/mL (≈ 3.06 µM)	–
CC1(C)CC[C@]2(C(=O)n3cnc(S)n3)CC[C@]3(C)C(=CCC4[C@@]5(C)Cc6c(n[nH]c6N)C(C)(C)C5CC[C@]43C)C2C1 (stereo partly drawn) [Compound 76, ((4aS,6aS,6bR,13aR)-12-Amino-2,2,6a,6b,9,9,13a-heptamethyl-2,3,4,4a,5,6,6a,6b,7,8,8a,9,11,13,13a,13b,14,15b-octadecahydro-1H-chryseno[1,2-f]indazol-4a-yl)(3-mercapto-1H-1,2,4-triazol-1-yl)methanone]	–	–	IC85 (E. coli; Table 4): 2 µg/mL (≈ 3.47 µM); IC85 (P. aeruginosa; Table 4): 0.5 µg/mL (≈ 0.867 µM)
CC1(C)CC[C@]2(C(=O)O)CC[C@]3(C)C(=C(c4cccc(C(N)=O)c4)CC4[C@@]5(C)Cc6c(n[nH]c6N)C(C)(C)C5CC[C@]43C)C2C1 (stereo partly drawn) [Compound 19, (4aS,6aS,6bR,13aR)-12-Amino-15-(3-carbamoylphenyl)-2,2,6a,6b,9,9,13a-heptamethyl-2,3,4,4a,5,6,6a,6b,7,8,8a,9,11,13,13a,13b,14,15b-octadecahydro-1H-chryseno[1,2-f]indazole-4a-carboxylic acid]	1 µg/mL (≈ 1.63 µM)	1 µg/mL (≈ 1.63 µM)	–
